Experimental data: patent publication US20240207288A1, “METHODS OF TREATING ESOPHAGEAL STRICTURES” (Ellodi Pharmaceuticals, L.P., priority 2021, published 2024)
Read-outs that look alike come from different tables or passages of the source.

Assays:
[1] = tested on: subjects with strictures and/or rings and EoE; assay: Clinical trial of FP ODT: histologic response (peak eosinophils/HPF in oesophageal biopsies); type: in vivo, human; conditions: subgroup with strictures and/or Grade 2 rings at baseline, Week 12
Protocol: (§1) A clinical trial was performed to evaluate the effect of an orally disintegrating tablet (“ODT”) comprising fluticasone propionate (FP). A randomised, double-blind, placebo-controlled, multicentre, dose-ranging, and maintenance study of FP in subjects (>18 and <75 years of age) with strictures and/or rings and EoE. The trial examined four doses of FP to define the exposure-response of FP and the minimum effective dose to minimize significant hypothalamic-pituitary-adrenal (HPA) axis effects. The study (as shown in FIG. 1) was designed as follows. • (a) Screening: Patients with a confirmed diagnosis or presumptive diagnosis of EoE (including identifying strictures and/or rings) were selected for the study. An EoE diagnosis was confirmed by symptoms, histology, and historical documentation of failed treatment on >8 weeks of high-dose proton pump inhibitor (PPI). A high-dose PPI was defined as administration of a total dose of 20 to 40 mg of a marketed PPI once or twice daily.
(§2) Subjects that participated in Part 1 studies were randomized and administered a treatment selected from: • (a) 1.5 mg HS: Placebo 30 minutes after breakfast and 1.5 mg HS (at bedtime); • (b) 1.5 mg BID: 1.5 mg 30 minutes after breakfast and at bedtime; total daily dose of 3 mg; • (c) 3 mg HS: Placebo 30 minutes after breakfast and 3 mg at bedtime; and • (d) 3 mg BID: 3.0 mg 30 minutes after breakfast and at bedtime; total daily dose of 6 mg.
During Part 1 (Induction, Day 1 to Week 14), subjects received their randomized treatment for 14 weeks. At Week 12, the subjects underwent a response assessment, including an oesophagogastroduodenoscopy (EGD) to assess endoscopic and histologic status. Histologic responders and non-responders (at Week 12) entered Part 2.
The primary endpoint was the histologic responder rate at Week 12 of Part 1, […] 5 to 6 biopsies from the proximal and distal oesophagus (approximately 3 each) where the HPF area was […] (40 magnification lens with a 22 mm ocular).

[2] = tested on: subjects with strictures and/or rings and EoE; assay: Clinical trial of FP ODT: dysphagia episodes (symptom response); type: in vivo, human; conditions: subgroup with strictures and/or Grade 2 rings at baseline, Week 12
Protocol: as §1
Subjects that participated in Part 1 studies were randomized and administered a treatment selected from: • (a) 1.5 mg HS: Placebo 30 minutes after breakfast and 1.5 mg HS (at bedtime); • (b) 1.5 mg BID: 1.5 mg 30 minutes after breakfast and at bedtime; total daily dose of 3 mg; • (c) 3 mg HS: Placebo 30 minutes after breakfast and 3 mg at bedtime; and • (d) 3 mg BID: 3.0 mg 30 minutes after breakfast and at bedtime; total daily dose of 6 mg. […]

[3] = tested on: subjects with EoE (safety analysis set); assay: Clinical trial of FP ODT: treatment-emergent adverse events; type: in vivo, human
Protocol: as §2
Patient Population: 105 subjects received at least 1 dose of study drug in Part 1 of the study safety analysis set (SAF population), and 92 subjects ([…]) of those subjects completed Week 14. […] Subjects were classified according to their randomized treatment.
Safety endpoints were measured such as Frequency of treatment-emergent adverse event (TEAEs); TEAEs leading to discontinuation; Treatment-emergent serious adverse events (SAEs); Percentage of subjects with serum cortisol level ≤5 μg/dL (≤138 nmol/L) or abnormal adrenocorticotropic hormone (ACTH) stimulation test (serum cortisol <16 μg/dL [≤440 nmol/L] at 60 minutes); The number of subjects discontinuing for HPA axis suppression will be recorded; and frequency of oral and esophageal candidiasis.

[4] = cited from earlier work
[5] = all FP dosing groups, TOTAL (n = 43)

Substance: S-(fluoromethyl)-6α,9-difluoro-11β, 17-dihydroxy-16α-methyl-3-oxoandrosta-1, 4-diene-17β-carbothioate, 17-propanoate [FP]
- Histology Responder Rate, % ([1]; FP 1.5 mg BID (n = 12)): 100%
- Histology Responder Rate, % ([1]; FP 1.5 mg HS (n = 13)): 54%
- Histology Responder Rate, % ([1]; FP 3 mg BID (n = 7)): 86%
- Histology Responder Rate, % ([1]; FP 3 mg HS (n = 11)): 82%
- Histology Responder Rate, % [1, 5]: 79%
- Symptoms Responder Rate (≤50% reduction dysphagia episodes), % ([2]; FP 1.5 mg BID (n = 12)): 42%
- Symptoms Responder Rate (≤50% reduction dysphagia episodes), % ([2]; FP 1.5 mg HS (n = 13)): 77%
- Symptoms Responder Rate (≤50% reduction dysphagia episodes), % ([2]; FP 3 mg BID (n = 7)): 57%
- Symptoms Responder Rate (≤50% reduction dysphagia episodes), % ([2]; FP 3 mg HS (n = 11)): 73%
- Symptoms Responder Rate (≤50% reduction dysphagia episodes), % [2, 5]: 63%
- At least 1 TEAE, (%) ([3]; FP 1.5 mg BID (n = 23)): (74) %
- Maximum severity of TEAE: Mild, (%) ([3]; FP 1.5 mg BID (n = 23)): (61) %
- Maximum severity of TEAE: Moderate, (%) ([3]; FP 1.5 mg BID (n = 23)): (13) %
- TEAE leading to study discontinuation, (%) ([3]; FP 1.5 mg BID (n = 23)): (9) %
- TEAE of special interest, (%) ([3]; FP 1.5 mg BID (n = 23)): (13) %
- TEAE related to study drug, (%) ([3]; FP 1.5 mg BID (n = 23)): (22) %
- At least 1 TEAE, (%) ([3]; FP 1.5 mg HS (n = 21)): (62) %
- Maximum severity of TEAE: Mild, (%) ([3]; FP 1.5 mg HS (n = 21)): (52) %
- Maximum severity of TEAE: Moderate, (%) ([3]; FP 1.5 mg HS (n = 21)): (5) %
- Maximum severity of TEAE: Severe, (%) ([3]; FP 1.5 mg HS (n = 21)): (5) %
- TEAE related to study drug, (%) ([3]; FP 1.5 mg HS (n = 21)): (10) %
- At least 1 TEAE, (%) ([3]; FP 3 mg BID (n = 20)): (85) %
- Maximum severity of TEAE: Mild, (%) ([3]; FP 3 mg BID (n = 20)): (60) %
- Maximum severity of TEAE: Moderate, (%) ([3]; FP 3 mg BID (n = 20)): (25) %
- TEAE leading to study discontinuation, (%) ([3]; FP 3 mg BID (n = 20)): (5) %
- TEAE of special interest, (%) ([3]; FP 3 mg BID (n = 20)): (35) %
- TEAE related to study drug, (%) ([3]; FP 3 mg BID (n = 20)): (50) %
- At least 1 TEAE, (%) ([3]; FP 3 mg HS (n = 21)): (76) %
- Maximum severity of TEAE: Mild, (%) ([3]; FP 3 mg HS (n = 21)): (29) %
- Maximum severity of TEAE: Moderate, (%) ([3]; FP 3 mg HS (n = 21)): (43) %
- Maximum severity of TEAE: Severe, (%) ([3]; FP 3 mg HS (n = 21)): (5) %
- Serious TEAE, (%) ([3]; FP 3 mg HS (n = 21)): (5) %
- TEAE of special interest, (%) ([3]; FP 3 mg HS (n = 21)): (5) %
- TEAE related to study drug, (%) ([3]; FP 3 mg HS (n = 21)): (29) %
- At least 1 TEAE, (%) ([3]; Total FP (n = 85)): 74%
- Maximum severity of TEAE: Mild, (%) ([3]; Total FP (n = 85)): 51%
- Maximum severity of TEAE: Moderate, (%) ([3]; Total FP (n = 85)): 21%
- Maximum severity of TEAE: Severe, (%) ([3]; Total FP (n = 85)): 2 (2) %
- Serious TEAE, (%) ([3]; Total FP (n = 85)): 1 (1) %
- TEAE leading to study discontinuation, (%) ([3]; Total FP (n = 85)): 4%
- TEAE of special interest, (%) ([3]; Total FP (n = 85)): 13%
- TEAE related to study drug, (%) ([3]; Total FP (n = 85)): 25%
- Solubility ([4]; acetone, dichloromethane, ethyl acetate and chloroform): sparingly soluble
- Solubility ([4]; dimethyl sulfoxide and dimethylformamide): freely soluble
- Solubility ([4]; methanol and 95% ethanol): slightly soluble
- Solubility ([4]; water): practically insoluble
